Tests used:
Experiment in all cases: relative viability (nuclei count vs DMSO), 5 days (fraction); higher = more cells survive
[1] = compound: C1CC(C1)(C(=O)O)C(=O)O.[NH2-].[NH2-].[Pt+2] [Carboplatin] + C[C@]1(O)C[C@@H](c2nc(-c3ccc4ccc(-c5ccccc5)nc4c3)c3c(N)nccn32)C1 [Linsitinib] (partner 1 µM)
Summary of the method: (§1)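 For relative viability, nuclei counts in treated wells were divided by those in vehicle wells. Lung cancer cell lines had been pin-tool dosed in 1536-well plates the day after seeding and cultured for 5 days, then fixed and stained in one step (final 0.05% Triton X-100, 1% formaldehyde, 1 ug/ml Hoechst) and imaged at 4×. Doses were one drug alone or a fixed anchor-drug dose plus five library-drug doses (not always all listed) in √10 steps, and values are duplicate-plate medians.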

[2] = compound: CC[C@H](C)N1C=C(C2=C(C=C(C=C21)C3=CN=C(C=C3)N4CCNCC4)C(=O)NCC5=C(C=C(NC5=O)C)C)C [GSK126] + CC1(C)CCC(c2ccc(Cl)cc2)=C(CN2CCN(c3ccc(C(=O)NS(=O)(=O)c4ccc(N[C@H](CCN5CCOCC5)CSc5ccccc5)c(S(=O)(=O)C(F)(F)F)c4)cc3)CC2)C1 [Navitoclax] (partner 0.5 µM)
Summary of the method: as §1

[3] = compound: NS(=O)(=O)OC[C@@H]1C[C@@H](n2ccc3c(N[C@H]4CCc5ccccc54)ncnc32)C[C@@H]1O [MLN4924] + COc1cc2c(Oc3ccc(NC(=O)C4(C(=O)Nc5ccc(F)cc5)CC4)cc3F)ccnc2cc1OCCCN1CCOCC1 [Foretinib] (partner 0.25 µM)
Summary of the method: as §1

[4] = compound: NS(=O)(=O)OC[C@@H]1C[C@@H](n2ccc3c(N[C@H]4CCc5ccccc54)ncnc32)C[C@@H]1O [MLN4924] + Cc1nc(NC(=O)N2CCC[C@H]2C(N)=O)sc1-c1ccnc(C(C)(C)C(F)(F)F)c1 [Alpelisib] (partner 2 µM)
Summary of the method: as §1

| Cell Line | relative viability ([1]; first compound 0.08 µM) | relative viability ([1]; first compound 0.253 µM) | relative viability ([1]; first compound 0.8 µM) | relative viability ([1]; first compound 2.53 µM) | relative viability ([1]; first compound 8 µM) | relative viability ([2]; first compound 0.08 µM) | relative viability ([2]; first compound 0.253 µM) | relative viability ([2]; first compound 0.8 µM) | relative viability ([2]; first compound 2.53 µM) | relative viability ([2]; first compound 8 µM) | relative viability ([3]; first compound 0.04 µM) | relative viability ([3]; first compound 0.1265 µM) | relative viability ([3]; first compound 0.4 µM) | relative viability ([3]; first compound 1.265 µM) | relative viability ([3]; first compound 4 µM) | relative viability ([4]; first compound 0.04 µM) | relative viability ([4]; first compound 0.1265 µM) | relative viability ([4]; first compound 0.4 µM) | relative viability ([4]; first compound 1.265 µM) | relative viability ([4]; first compound 4 µM) |
| --- | --- | --- | --- | --- | --- | --- | --- | --- | --- | --- | --- | --- | --- | --- | --- | --- | --- | --- | --- | --- |
| SK-MES-1 | 1.11 | 1.05 | 1.04 | 1.01 | 0.936 | 1.4 | 1.27 | 1.1 | 1.33 | 1.16 | 1.11 | 1.11 | 0.646 | 0.213 | 0.239 | 0.99 | 0.882 | 0.87 | 0.232 | 0.185 |
| PC-14 | 0.979 | 0.931 | 0.939 | 0.921 | 0.55 | 1.04 | 0.998 | 1.02 | 0.95 | 0.804 | 1.1 | 0.852 | 0.43 | 0.174 | 0.139 | 0.929 | 0.904 | 0.826 | 0.177 | 0.0924 |
| NCI-H1651 | 0.918 | 1.06 | 0.82 | 0.9 | 0.509 | 1.19 | 0.943 | 1.07 | 1.07 | 1.2 | 0.74 | 0.754 | 0.656 | 0.436 | 0.173 | 1.11 | 0.961 | 0.793 | 0.362 | 0.168 |
| HOP-62 | 0.982 | 0.996 | 0.949 | 0.947 | 0.801 | 1.01 | 1.06 | 1.06 | 0.916 | 0.979 | 0.669 | 0.312 | 0.246 | 0.0894 | 0.0942 | 0.903 | 0.627 | 0.29 | 0.0619 | 0.0676 |
| HCC-44 | 0.668 | 0.685 | 0.606 | 0.478 | 0.543 | 0.963 | 0.981 | 0.853 | 0.906 | 1.01 | – | – | – | – | – | 0.7 | 0.347 | 0.162 | 0.15 | 0.134 |
| HCC-15 | 0.9 | 0.892 | 0.888 | 0.812 | 0.7 | 0.719 | 0.662 | 0.658 | 0.676 | 0.623 | 0.688 | 0.219 | 0.183 | 0.109 | 0.0915 | 0.537 | 0.23 | 0.163 | 0.0818 | 0.0862 |
| NCI-H460 | 0.907 | 0.803 | 0.739 | 0.445 | 0.184 | 1.14 | 1.17 | 1.17 | 1.1 | 1.18 | 1.01 | 1.09 | 0.855 | 0.297 | 0.0485 | 0.677 | 0.688 | 0.662 | 0.0819 | 0.0199 |
| NCI-H1299 | 1.02 | 0.993 | 0.953 | 0.965 | 0.956 | 1.05 | 1.07 | 1.01 | 1.03 | 1.02 | 1.01 | 0.82 | 0.499 | 0.33 | 0.176 | 1.03 | 1.07 | 0.71 | 0.333 | 0.263 |
| SK-LU-1 | 1.23 | 1.02 | 1.11 | 1.06 | 0.624 | 0.857 | 0.819 | 0.911 | 0.915 | 0.855 | 0.924 | 0.615 | 0.26 | 0.14 | 0.174 | 1.1 | 0.572 | 0.281 | 0.145 | 0.194 |
| COR-L 105 | 0.88 | 1.02 | 0.681 | 0.792 | 0.572 | 0.813 | 0.745 | 0.754 | 0.678 | 0.719 | 0.697 | 0.654 | 0.396 | 0.292 | 0.258 | 0.836 | 0.702 | 0.413 | 0.257 | 0.31 |
| COR-L23 | 0.976 | 0.91 | 0.754 | 0.529 | 0.297 | 1.17 | 1.01 | 0.834 | 0.95 | 0.968 | 0.985 | 0.844 | 0.644 | 0.299 | 0.141 | 0.722 | 0.689 | 0.561 | 0.159 | 0.116 |
| NCI-H3122 | 0.947 | 1.01 | 0.991 | 1.08 | 0.973 | 1.04 | 1.06 | 1.05 | 1 | 1.02 | 0.903 | 0.385 | 0.232 | 0.106 | 0.0762 | 0.799 | 0.452 | 0.251 | 0.188 | 0.133 |
| NCI-H23 | 0.536 | 0.716 | 0.542 | 0.563 | 0.492 | 0.847 | 0.837 | 0.895 | 0.996 | 1.03 | 0.968 | 0.839 | 0.767 | 0.285 | 0.184 | 0.611 | 0.5 | 0.28 | 0.149 | 0.155 |
| PC-3 [JPC-3] | 0.953 | 0.942 | 0.888 | 0.919 | 0.931 | 0.877 | 0.862 | 0.874 | 0.76 | 0.753 | 1.05 | 0.976 | 0.688 | 0.375 | 0.293 | 0.996 | 0.963 | 0.896 | 0.327 | 0.266 |
| NCI-H2228 | 0.601 | 1.08 | 0.719 | 0.653 | 0.641 | 0.55 | 1.01 | 1.1 | 0.863 | 0.837 | 1.07 | 0.69 | 0.512 | 0.302 | 0.147 | – | 0.833 | 0.415 | 0.176 | 0.18 |

From the supplement of paper PMC10307832
